Data: patent publication US20190314379A1, “METHODS OF USING CANNABINOID CB2 RECEPTOR AGONIST COMPOSITIONS TO SUPPRESS AND PREVENT OPIOID TOLERANCE AND WITHDRAWAL IN A SUBJECT” (Indiana University Research and Technology Corporation, priority 2018, published 2019)
pEC50: −log10 of the molar value. “Also recorded” adds a separate entry of the source.

Columns and labels:
mouse CB2 receptors [1] = target: T1, mouse CB2 receptors (Mus musculus, UniProt P47936); test: Arrestin recruitment (PathHunter CHO K1CNR2, enzyme complementation); assay type: cell-based
T1 construct: expressed in transfected cells
T1 sequence (P47936 whole entry): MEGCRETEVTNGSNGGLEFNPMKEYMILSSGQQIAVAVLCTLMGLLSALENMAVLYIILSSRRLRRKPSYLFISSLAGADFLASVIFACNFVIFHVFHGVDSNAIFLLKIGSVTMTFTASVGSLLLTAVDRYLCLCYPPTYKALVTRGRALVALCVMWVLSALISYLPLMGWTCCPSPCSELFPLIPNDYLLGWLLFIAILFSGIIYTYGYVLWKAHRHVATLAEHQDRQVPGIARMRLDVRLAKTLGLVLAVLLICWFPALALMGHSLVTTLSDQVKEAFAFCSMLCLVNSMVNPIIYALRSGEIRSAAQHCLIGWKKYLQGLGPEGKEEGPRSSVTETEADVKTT

mouse CB2 receptors [2] = target: T1, mouse CB2 receptors; test: On-cell western for receptor internalization, HEK mCB2; assay type: cell-based
mouse CB2 receptors [3] = target: T1, mouse CB2 receptors; test: Phosphorylated ERK1/2 detection, HEK mCB2; assay type: cell-based; settings: for Emax: read-out: pERK1/2 Emax
[4] = test system: paclitaxel-induced mechanical allodynia; test: Paclitaxel-induced mechanical allodynia (electronic von Frey); assay type: in vivo, mouse; settings: for mechanical allodynia, chronic phase 1 treatment: 3 mg/kg per day i.p.×12 days
Experimental: In all studies, the experimenter was blinded to the treatment condition, and mice were randomly assigned to experimental conditions. Paclitaxel (4 mg/kg i.p.) was administered four times on alternate days (cumulative dose, 16 mg/kg i.p.) to induce neuropathic pain as described previously by our group (Deng et al., 2015). Control mice received an equal volume of cremophor-vehicle. Development of paclitaxel-induced allodynia was assessed on day 0, 4, 7, 11, and 14.
Effects of pharmacologic manipulations were assessed at 30 minutes after drug administration during the maintenance phase of paclitaxel-induced neuropathy (i.e., beginning day 18-20 after initial paclitaxel injection).
In experiments 2 and 3, pharmacologic manipulations were performed once daily for 12 consecutive days in each of the two phases of chronic treatment. Four days separated phase 1 and phase 2 chronic dosing in all studies comprising two phases of chronic dosing. Experiments 2 and 3 were performed concurrently using overlapping cohorts that were tested with a single vehicle (phase 1), vehicle (phase 2) group.
We then assessed the antiallodynic efficacy of chronic systemic administration of vehicle or morphine (10 mg/kg per day i.p.×12 days) administered during phase 2 in the same animals. Responsiveness to mechanical and cold stimulation was evaluated on treatment days 1, 4, 8, and 12 during phase 1 and on treatment days 16, 19, 23, and 27 during phase 2 (i.e., phase 2 started on day 16).
In experiment 4, we evaluated the impact of coadministration of morphine (10 mg/kg i.p.×12 days) with a submaximal dose of LY 2828360 (0.1 mg/kg per day i.p.×12 days) in WT and CB2 KO mice.
Paw withdrawal thresholds (grams) to mechanical stimulation were measured in duplicate for each paw using an electronic von Frey anesthesiometer supplied with a 90-g probe (model Alemo 2390-5; IITC, Woodland Hills, Calif.) as described previously. Mice were placed on an elevated metal mesh table and allowed to habituate under individual, inverted plastic cages to the testing platform for at least 20 minutes until exploratory behavior had ceased. Alter the habituation period, a force was applied to the midplantar region of the hind paw with a semiflexible tip connected to the anesthesiometer. Mechanical stimulation was terminated when the animal withdrew its paw, and the value of the applied force was recorded in grams. Mechanical paw withdrawal thresholds were obtained in duplicate for each paw and are reported as the mean of duplicate determinations from each animal, averaged across animals, for each group.

[5] = test system: joint pain induced by intra-articular monoiodoacetic acid; settings: 0.3 mg/kg p.o.; cited from earlier work
human CB2 = human CB2 (Homo sapiens, UniProt P34972); test: Forskolin-stimulated cAMP accumulation (cyclase), HEK hCB2; assay type: cell-based; parameters: expressed in transfected cells; time of inhibition of forskolin-stimulated cAMP accumulation: dose or concentration left out as unconfirmed
Chain of human CB2 (P34972 whole entry): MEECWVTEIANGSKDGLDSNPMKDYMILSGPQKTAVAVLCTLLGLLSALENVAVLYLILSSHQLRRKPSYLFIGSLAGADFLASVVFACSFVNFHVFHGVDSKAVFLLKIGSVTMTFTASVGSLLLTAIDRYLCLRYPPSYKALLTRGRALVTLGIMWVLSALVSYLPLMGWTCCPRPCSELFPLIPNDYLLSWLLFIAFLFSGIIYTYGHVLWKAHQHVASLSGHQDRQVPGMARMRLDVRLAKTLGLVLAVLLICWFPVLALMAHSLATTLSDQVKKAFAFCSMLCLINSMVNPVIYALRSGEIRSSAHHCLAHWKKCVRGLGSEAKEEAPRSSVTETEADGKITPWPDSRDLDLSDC

[6] = WT mice, 3 mg/kg per day i.p.×12 days after phase 1 morphine

SMILES: Cc1nc(N2CCN(C)CC2)c2nc(-c3ccccc3Cl)n(C3CCOCC3)c2n1 [LY2828360, 8-(2-chlorophenyl)-2-methyl-6-(4-methylpiperazin-1-yl)-9-(tetrahydro-2H-pyran-4-yl)-9H-purine]
- arrestin recruitment (mouse CB2 receptors [1]; CHO cells expressing mCB2, 90-minute drug incubation): failed to do so
- Emax (mouse CB2 receptors [1]; mouse CB2, 90 mins incubation, read-out: Arrestin Emax): 97.9%
- receptor internalization (mouse CB2 receptors [2]; HEK mCB2): failed to internalize the receptor; also recorded: less potent and efficacious
- pEC50 (mouse CB2 receptors [2]; mouse CB2, 90 mins incubation, read-out: Internalization EC50): 7.51
- Emax (mouse CB2 receptors [2]; mouse CB2, 90 mins incubation, read-out: Internalization Emax): 19.1%
- ERK1/2 phosphorylation time course (mouse CB2 receptors [3]; mCB2, 1 μM): had no effect at 5- and 10-minute time points but increased ERK1/2 phosphorylation at 20, 30, and 40 minutes
- ERK1/2 phosphorylation after PTX treatment (mouse CB2 receptors [3]; mCB2, 1 μM, PTX): abolished the 20-minute phosphorylation of ERK1/2
- ERK1/2 phosphorylation, concentration response (mouse CB2 receptors [3]; mCB2, 5 minutes): failed to affect pERK1/2 levels
- ERK1/2 phosphorylation, concentration response (mouse CB2 receptors [3]; mCB2, 20 minutes): increased ERK1/2 phosphorylation
- effect on ERK1/2 phosphorylation in presence of SR144528 (mouse CB2 receptors [3]; mCB2, 20 minutes, SR144528 1 μM): blocked
- Emax (mouse CB2 receptors [3]; mouse CB2, 05 mins incubation): 4.1%
- pEC50 (mouse CB2 receptors [3]; mouse CB2, 20 mins incubation, read-out: pERK1/2 EC50): 6.47
- Emax (mouse CB2 receptors [3]; mouse CB2, 20 mins incubation): 43.6%
- time for responsiveness to mechanical stimulation to return to baseline ([4]; 3 mg/kg i.p. acute): 1 days
- mechanical allodynia, chronic phase 1 treatment ([4]; CB2KO mice): failed to suppress
- mechanical responsiveness, phase 2 treatment of morphine-tolerant mice ([4]; CB2KO mice, 3 mg/kg per day i.p.×12 days after phase 1 morphine): did not alter responsiveness to mechanical or cold stimulation
- mechanical allodynia, coadministration with morphine ([4]; CB2KO mice, LY2828360 0.1 mg/kg with morphine 10 mg/kg per day×12 days): sustained antiallodynic efficacy was absent
- development of tolerance to antiallodynic effect of phase 2 morphine, mechanical ([4]; CB2KO mice, LY2828360 phase 1, morphine phase 2): did not block the development of morphine tolerance
- paclitaxel-induced mechanical allodynia, high dose ([4]; WT mice, 3 mg/kg i.p. acute): fully reversed paclitaxel-induced allodynia and normalized responses to pre-paclitaxel baseline levels
- mechanical allodynia, chronic phase 1 treatment ([4]; WT mice): markedly suppressed paclitaxel-induced mechanical and cold allodynia throughout the observation interval
- mechanical allodynia, phase 2 treatment of morphine-tolerant mice [4, 6]: fully reversed paclitaxel-induced allodynia and normalized responsiveness to pre-paclitaxel baseline levels
- tolerance to phase 2 treatment, mechanical [4, 6]: tolerance did not develop
- mechanical allodynia, coadministration with morphine ([4]; WT mice, LY2828360 0.1 mg/kg per day i.p.×12 days with morphine 10 mg/kg per day×12 days): fully reversed paclitaxel-induced mechanical allodynia and normalized responses to pre-paclitaxel baseline levels throughout the observation period
- development of morphine tolerance under coadministration, mechanical ([4]; WT mice, LY2828360 0.1 mg/kg with morphine 10 mg/kg per day×12 days): morphine tolerance failed to develop
- development of tolerance to antiallodynic effect of phase 2 morphine, mechanical ([4]; WT mice, LY2828360 3 mg/kg per day×12 days phase 1, morphine 10 mg/kg×12 days phase 2): prevented the development of morphine tolerance
- paclitaxel-induced mechanical allodynia, acute dose response ([4]; WT mice, acute systemic (i.p.), dose-dependent): suppressed
- mechanical allodynia at low doses vs cremophor-vehicle controls ([4]; WT mice, doses lower than 0.3 mg/kg i.p.): neuropathic pain was prominent
- stability of antiallodynic efficacy (tolerance), mechanical ([4]; WT mice, phase 1, 3 mg/kg per day i.p.×12 days): stable throughout phase 1 treatment
- efficacy compared with diclofenac [5]: equivalent efficacy
- reversal of pain, incapacitance testing [5]: dose-related reversal of pain
- inhibition of forskolin-stimulated cAMP accumulation (human CB2; hCB2, 5 minutes of treatment): had no effect
- inhibition of forskolin-stimulated cAMP accumulation (human CB2; hCB2, 35 minutes): potent and efficacious agonist
- inhibition of forskolin-stimulated cAMP accumulation in presence of SR144528 (human CB2; hCB2, 35 minutes): completely blocked
- time of inhibition of forskolin-stimulated cAMP accumulation (human CB2; hCB2, time course): 35 min
- inhibition of cAMP accumulation after PTX pretreatment (human CB2; hCB2, time course, PTX): abolished this effect
- Emax (human CB2; human CB2, 35 mins incubation, read-out: Cyclase Emax): 42.8%
